Test results as given in ChEMBL document CHEMBL1777678, “2,4-diarylthiazole antiprion compounds as a novel structural class of antimalarial leads” (Bioorg Med Chem Lett, 2011).
Active and inactive are the calls of the source. No cut-off for these calls is given here.

Columns and labels:
[1] = Antiprion activity against Chandler strain of sheep scrapie prion protein infected in mouse SMB cells assessed as clearance of disease-associated scrapie prion protein; type: cell-based, Ovis aries
Plasmodium falciparum [2] = assay: Antimalarial malarial activity against chloroquine-sensitive Plasmodium falciparum 3D7 infected in human A positive erythrocytes assessed as inhibition of [3H]hypoxanthine incorporation after 24 hrs; type: functional, organism-based
[3] = Cytotoxicity against mouse SMB cells up to 20 uM; type: cell-based
Plasmodium falciparum [4] = assay: Antimalarial malarial activity against chloroquine-resistant Plasmodium falciparum K1 infected in human A positive erythrocytes assessed as inhibition of [3H]hypoxanthine incorporation after 24 hrs; type: functional, organism-based
Plasmodium falciparum [5] = assay: Antimalarial malarial activity against chloroquine-sensitive Plasmodium falciparum 3D7 infected in human A positive erythrocytes assessed as inhibition of [3H]hypoxanthine incorporation at 19.3 ug/ml after 24 hrs; type: functional, organism-based
Plasmodium falciparum [6] = assay: Antimalarial malarial activity against chloroquine-resistant Plasmodium falciparum K1 infected in human A positive erythrocytes assessed as inhibition of [3H]hypoxanthine incorporation 10 ug/ml after 24 hrs; type: functional, organism-based
[7] = Ovis aries, SMB, read-out: EC50

| Structure (SMILES) | EC50 [1, 7] [µM] | IC50 (Plasmodium falciparum [2]) [µM] | Activity [3] | IC50 (Plasmodium falciparum [4]) [µM] | inhibition (Plasmodium falciparum [5]) | EC50 ([1]; smb) | inhibition (Plasmodium falciparum [6]) |
| --- | --- | --- | --- | --- | --- | --- | --- |
| CCN(CC)CCNC(=O)c1sc(-c2cccs2)nc1-c1ccccc1 | 6.7 | 13.8 | Non-toxic | 4.4 |  |  |  |
| CCN(CC)CCNC(=O)c1sc(-c2ccc(OC)cc2)nc1-c1ccccc1 | 4 |  | Non-toxic | 7.7 | inactive |  |  |
| CCN(CC)CCCNC(=O)c1sc(-c2ccccc2)nc1-c1ccccc1 | 2.3 | 1 | Non-toxic | 13.3 |  |  |  |
| CCN(CC)CCNC(=O)c1sc(-c2ccccc2)nc1-c1ccccc1 | 4.9 |  | Non-toxic | 0.71 | inactive |  |  |
| O=C(NCCN1CCOCC1)c1sc(-c2ccccc2)nc1-c1ccccc1 |  |  | Non-toxic |  | inactive | Not Active | inactive |
| O=C(c1sc(-c2ccccc2)nc1-c1ccccc1)N1CCC(N2CCCCC2)CC1 | 1.9 | 20.2 | Non-toxic | 0.83 |  |  |  |
| O=C(c1sc(-c2ccccc2)nc1-c1ccccc1)N1CCC(N2CCCC2)CC1 | 5.5 | 12 | Non-toxic | 6.2 |  |  |  |
| O=C(NCCN1CCCC1)c1sc(-c2ccccc2)nc1-c1ccccc1 | 10.7 |  | Toxic | 14.9 | inactive |  |  |
| CCN(CC)CCCC(C)NC(=O)c1sc(-c2ccccc2)nc1-c1ccccc1 (stereo not drawn) | 2.9 | 9.5 | Non-toxic | 3.8 |  |  |  |
| O=C(NCCCn1ccnc1)c1sc(-c2ccccc2)nc1-c1ccccc1 |  | 13.9 | Non-toxic | 11.5 |  | Not Active |  |
| CCN(CC)CCNC(=O)c1sc(-c2cccnc2)nc1-c1ccccc1 | 20 |  | Non-toxic | 5.3 | inactive |  |  |
| CCN(CC)CCCC(C)Nc1ccnc2cc(Cl)ccc12 (stereo not drawn) [CHLOROQUINE] | 2.3 |  |  |  |  |  |  |
| CN(C)CCNC(=O)c1sc(-c2ccccc2)nc1-c1ccccc1 | 4.8 |  | Toxic | 8.8 | inactive |  |  |
| O=C(NCc1ccccn1)c1sc(-c2ccccc2)nc1-c1ccccc1 |  | 19.7 | Non-toxic | 15 |  | Not Active |  |
